Reference: ChEMBL document CHEMBL5465560, “Selectivity Literature for EUbOPEN Chemogenomic Library” (2024)
Residue numbers refer to the chain shown, from its start.

Tests used:
Conditions in all cases: at 1 µM
[1] = tested on: T1, Receptor-type tyrosine-protein kinase FLT3 (Homo sapiens), P36888 [K663Q]; assay: (§1) Selectivity interaction (KinomeScan (DiscoverX)) EUB0001049a FLT3
T1 sequence (whole entry): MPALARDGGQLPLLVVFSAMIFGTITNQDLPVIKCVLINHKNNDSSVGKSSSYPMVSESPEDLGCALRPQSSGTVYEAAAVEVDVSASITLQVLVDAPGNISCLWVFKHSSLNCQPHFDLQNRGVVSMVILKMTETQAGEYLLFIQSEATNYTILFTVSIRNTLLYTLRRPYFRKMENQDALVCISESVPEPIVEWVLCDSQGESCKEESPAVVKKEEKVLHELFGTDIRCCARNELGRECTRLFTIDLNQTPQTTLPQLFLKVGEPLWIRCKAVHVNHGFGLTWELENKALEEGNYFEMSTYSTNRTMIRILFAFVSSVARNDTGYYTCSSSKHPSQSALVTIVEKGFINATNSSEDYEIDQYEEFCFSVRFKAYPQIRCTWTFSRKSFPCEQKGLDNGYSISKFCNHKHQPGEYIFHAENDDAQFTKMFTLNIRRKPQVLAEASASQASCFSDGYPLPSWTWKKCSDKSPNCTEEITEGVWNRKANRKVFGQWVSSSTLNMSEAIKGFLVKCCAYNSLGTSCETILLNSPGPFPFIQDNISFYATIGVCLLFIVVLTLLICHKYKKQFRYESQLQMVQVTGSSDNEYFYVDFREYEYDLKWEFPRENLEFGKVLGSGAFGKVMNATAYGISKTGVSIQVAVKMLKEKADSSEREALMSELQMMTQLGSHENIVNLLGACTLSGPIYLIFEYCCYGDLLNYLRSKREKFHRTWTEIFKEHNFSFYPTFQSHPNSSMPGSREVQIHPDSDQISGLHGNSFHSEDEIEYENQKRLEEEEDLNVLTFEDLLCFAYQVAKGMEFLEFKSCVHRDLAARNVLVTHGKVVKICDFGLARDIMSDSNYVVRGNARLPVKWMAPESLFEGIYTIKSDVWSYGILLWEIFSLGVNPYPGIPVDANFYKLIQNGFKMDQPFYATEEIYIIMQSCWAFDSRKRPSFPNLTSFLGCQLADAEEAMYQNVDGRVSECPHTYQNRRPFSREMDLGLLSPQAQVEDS

[2] = tested on: T2, Receptor-type tyrosine-protein kinase FLT3 (Homo sapiens), P36888 [R834Q]; assay: as §1
T2 sequence (whole entry): T1 sequence (whole entry) with Q663K, R834Q

[3] = tested on: T3, Receptor-type tyrosine-protein kinase FLT3 (Homo sapiens), P36888 [N841I]; assay: as §1
T3 sequence (whole entry): T1 sequence (whole entry) with Q663K, N841I

## COc1cc(Nc2nc(C)cc(-c3cnn4nc(OC)ccc34)n2)cc(C(F)(F)F)c1
[1]
  % of control: 78%
[2]
  % of control: 100%
[3]
  % of control: 100%
